From PubChem BioAssay (NCI)
Values joined by “and” are separate entries in the source; they are usually repeats but may differ in a detail not shown here. Equal values may be shown once.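 Values below derive from 48-hour exposures of cells grown in 96-well plates, with endpoints linearly interpolated between the two concentrations bracketing the appropriate inhibition level. Abbreviation: GI50, concentration required for 50% inhibition of growth. TGI marks complete inhibition of growth.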

Columns and labels:
Assay in all cases: DTP human tumour cell line panel, 48 h
HCT-116 colon = tested on: HCT-116 colon
M14 melanoma = tested on: M14 melanoma
MDA-MB-435 = tested on: MDA-MB-435
MOLT-4 leukemia = tested on: MOLT-4 leukemia
RXF 393 renal = tested on: RXF 393 renal
SK-MEL-28 melanoma = tested on: SK-MEL-28 melanoma
SNB-75 CNS = tested on: SNB-75 CNS
UACC-257 melanoma = tested on: UACC-257 melanoma
K-562 leukemia = tested on: K-562 leukemia
SR leukemia = tested on: SR leukemia

SMILES	GI50 (HCT-116 colon)	TGI (HCT-116 colon)	GI50 (M14 melanoma)	TGI (M14 melanoma)	GI50 (MDA-MB-435)	TGI (MDA-MB-435)	GI50 (MOLT-4 leukemia)	TGI (MOLT-4 leukemia)	GI50 (RXF 393 renal)	TGI (RXF 393 renal)	GI50 (SK-MEL-28 melanoma)	TGI (SK-MEL-28 melanoma)	GI50 (SNB-75 CNS)	TGI (SNB-75 CNS)	GI50 (UACC-257 melanoma)	TGI (UACC-257 melanoma)	GI50 (K-562 leukemia)	TGI (K-562 leukemia)	GI50 (SR leukemia)	TGI (SR leukemia)
Cc1cccc2c(=O)c3c(sc12)c(NCCCN)nc1ccccc13	1.48 µM	2.91 µM	1.58 µM	3.13 µM	1.69 µM	3.17 µM	1.35 µM	3.06 µM	1.48 µM	2.87 µM	1.89 µM	3.41 µM	1.02 µM	2.31 µM	1.76 µM	3.46 µM	–	–	–	–
CCC(CO)Nc1nc(NCc2ccccc2)c2n[nH]c(C(C)C)c2n1 (configuration not stated)	4.03 µM	14.5 µM	6.21 µM	20.2 µM	10 µM	24 µM	11.1 µM	46.3 µM	5.89 µM	21 µM	10.5 µM	27.7 µM	11.4 µM	25.4 µM	16.6 µM	35.6 µM	5.96 µM	34.4 µM	3.24 µM	10.6 µM
C=C(C)[C@@H]1C/C=C(/COC(C)=O)CC[C@H]2O[C@@]2(C)CC/C=C(\C)CC1	38 µM	> 100 µM	> 100 µM	> 100 µM	> 100 µM	> 100 µM	28.4 µM	82.3 µM	33.6 µM	> 100 µM	> 100 µM	> 100 µM	–	–	–	–	21.4 µM	45.1 µM	34.3 µM	91.5 µM
C/C(COc1ccc2oc(-c3ccccc3)cc(=O)c2c1)=N\O	25.3 µM	> 100 µM	15.3 µM	46.3 µM	0.556 µM	2.94 µM	89.2 µM	> 100 µM	> 100 µM	> 100 µM	23.1 µM	> 100 µM	> 100 µM	> 100 µM	> 100 µM	> 100 µM	70.7 µM	> 100 µM	–	–
Oc1cccc2cccnc12	1.06 µM and 3.42 µM and 1.46 µM	23.1 µM and > 100 µM	3.01 µM and 24.2 µM and 2.99 µM	35.4 µM and > 100 µM	13.3 µM and 21.5 µM and 5.94 µM	> 100 µM	–	–	13.4 µM and 69.6 µM and 14.6 µM	> 100 µM	16.9 µM and > 100 µM and > 55.5 µM	> 100 µM	44 µM and 18.4 µM	> 100 µM	–	27.3 µM and > 100 µM and > 27.8 µM	–	21.7 µM and > 100 µM and > 23.3 µM	–	23.7 µM and 3.71 µM
NC(=O)c1ccc(I)c([N+](=O)[O-])c1	> 100 µM	> 100 µM	> 86 µM	> 100 µM	> 75.6 µM	> 100 µM	> 71.2 µM	> 100 µM	> 84.8 µM	> 100 µM	98.7 µM	> 100 µM	> 100 µM	> 100 µM	> 80.4 µM	> 100 µM	30.2 µM	> 79.9 µM	32.8 µM	> 100 µM
COc1cc(OCCCN2CCCC2)ccc1Nc1ncc(Cl)c(Nc2ccccc2P(C)(C)=O)n1	1.74 µM	7.24 µM	2.58 µM	12.3 µM	1.65 µM	> 42.6 µM	3.95 µM	26 µM	0.81 µM	3.23 µM	6.34 µM	26.6 µM	2.55 µM	11.8 µM	6.42 µM	24 µM	4.43 µM	28.5 µM	0.0173 µM	–
COc1ccc(-c2oc3ncnc(N)c3c2-c2ccc(NC(=O)Nc3cc(C(F)(F)F)ccc3F)cc2)cc1	0.883 µM	2.84 µM	0.806 µM	3.23 µM	0.871 µM	3.95 µM	1.64 µM	8.98 µM	0.473 µM	1.15 µM	1.94 µM	5.26 µM	1.51 µM	4.35 µM	2.46 µM	6.69 µM	1.19 µM	16.6 µM	0.833 µM	8.61 µM
CC(=O)CCc1ccc(Oc2c3ccccc3nc3occc23)cc1	19.1 µM	79.5 µM	15.3 µM	29.2 µM	17.7 µM	43.9 µM	–	–	14 µM	39.1 µM	22.9 µM	46.7 µM	22.4 µM	61 µM	14.4 µM	28 µM	25.2 µM	> 100 µM	19.7 µM	57.3 µM
O=c1oc2ccc(F)cc2c(=O)n1-c1ccc(I)cc1F	0.387 µM	2.03 µM	0.49 µM	4.27 µM	0.419 µM	3.94 µM	1.07 µM	3.65 µM	0.543 µM	3.3 µM	0.392 µM	1.89 µM	0.368 µM	10.4 µM	0.432 µM	4.79 µM	0.397 µM	> 100 µM	0.388 µM	11.1 µM
C#Cc1cccc(Nc2nc(C)nc3cc(NC(=O)CCl)ccc23)c1	0.654 µM	2.66 µM	2.55 µM	6.17 µM	1.49 µM	4.75 µM	0.719 µM	2.27 µM	3.28 µM	6.86 µM	3.7 µM	7.41 µM	1.09 µM	4.34 µM	4.07 µM	7.62 µM	0.953 µM	3.65 µM	0.561 µM	2.24 µM
O=C(Nc1ccc(Cl)cc1)c1cc(NCc2cc(O)ccc2O)ccc1O	3.48 µM	18.2 µM	10.5 µM	27.1 µM	12 µM	27.2 µM	3.28 µM	32.9 µM	2.24 µM	5.31 µM	10.1 µM	22.4 µM	1.99 µM	8.99 µM	15.7 µM	30.3 µM	2.65 µM	8.53 µM	3.84 µM	> 100 µM
